Assays:
MCF-7 cells [1] = assay: Monodansylcadaverine (MDC) staining assay for autophagy; type: cell-based, human; conditions: 24 h, compared with control; 3-MA as co-treatment with E10
Method: To investigate whether E10 induced autophagy in MCF-7 cells, we performed Monodansylcadaverine (MDC) staining, transmission electron microscopy (TEM), and Western blot analysis to evaluate autophagy-related markers. MDC is a fluorescent probe commonly used to detect the formation of autophagic vacuoles, as it specifically labels autophagosomes.
MDC is a staining indicator for the formation of autophagosome. MCF-7 cells were seeded at a density of 2 × 10^5 cells per well in 6-well plates. MCF-7 cells were inoculated into a 6-well plate, and the cells were treated with E10 for 24 h. The treated cells were washed twice with buffer and then stained with MDC (Beijing Solarbio Science & Technology Co., Ltd., Beijing, China) for 40 min. The cells were then detected under a fluorescence microscope (Carl Zeiss, Jena, Germany).

MCF-7 cells [2] = assay: Annexin V/PI apoptosis assay by flow cytometry; type: cell-based, human; conditions: Figure 6A, in comparison with control
Method: The ability of drugs to induce cancer cell apoptosis is a key indicator of their chemotherapeutic potential. […] To examine the apoptotic effects of E10, an Annexin V-FITC dual-staining assay (with flow cytometric analysis) was performed. As shown in Figure 3A (also Figure 3C), treatment with increasing concentrations of E10 induced a marked elevation in apoptotic cell populations.
Autophagy has bidirectional regulation effects on cell survival. To confirm the role of autophagy in E10-induced cell death, 3-MA was used as an autophagy blocker.
MCF-7 cells were seeded at a density of 6 × 10^5 cells per well in 12-well plates and incubated in a 37 °C, 5% CO2 incubator for 24 h. After treatment with different concentrations of compound E10, the cells were washed with PBS two times, collected by trypsin enzymic digestion and centrifugation, and the collected cells were subsequently stained with 5 µL Annexin V-APC (YSRIBIO-C1084) and 5 µL PI for 10 min in the dark conditions. The cell apoptosis was measured with the flow cytometry (BD), and the data were analyzed by flowjo 10.6 software.

Cn1cnc(N)c2ncnc1-2 [3-MA, 3-methyladenine, reference compound]
MDC staining, autophagosome formation (MCF-7 cells [1]): marked reduction in fluorescence intensity | cell apoptosis with or without autophagy blocker 3-MA (MCF-7 cells [2]): reversed E10-induced apoptosis

— publication PMC12526212, “Novel Isolongifolenone-Based Caprolactam Derivatives as Potential Anticancer Agents via the p53/mTOR/Autophagy Pathway” (Molecules, 2025)
